Measurements: ChEMBL document CHEMBL1201862, “PubChem BioAssay data set” (2004)
Activity calls are given as the source filed them.

Assays:
[1] = HEp-2 cell cytotoxicity, dose response, cytotoxicity control for RSV inhibitor project, HTS (AID 2410); format: functional; details: human respiratory syncytial virus
[2] = biological target: T1, Calpain-2 catalytic subunit (Sus scrofa, UniProt P43367); assay: pig calpain II inhibitor potency, dose response, biochemical, fluorogenic peptide substrate (AID 1420); format: functional
T1 sequence (P43367 whole entry): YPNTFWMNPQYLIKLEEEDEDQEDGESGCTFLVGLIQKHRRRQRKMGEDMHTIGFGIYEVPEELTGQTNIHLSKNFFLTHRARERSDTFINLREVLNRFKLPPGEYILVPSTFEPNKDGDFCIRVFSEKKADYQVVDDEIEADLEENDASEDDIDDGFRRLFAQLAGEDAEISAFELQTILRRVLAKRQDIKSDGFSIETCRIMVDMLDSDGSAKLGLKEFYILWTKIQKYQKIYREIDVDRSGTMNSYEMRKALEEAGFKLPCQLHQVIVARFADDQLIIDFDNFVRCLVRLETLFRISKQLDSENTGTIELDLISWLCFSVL

[3] = biological target: Protein Rev (Human immunodeficiency virus type 1 group M subtype B (isolate HXB2)(HIV-1), UniProt P04618); assay: inhibitors of Rev binding to RRE RNA, dose response, biochemical, fluorescence polarization, HIV-1 (AID 434976); parameters: species or system Human immunodeficiency virus 1
[4] = biological target: T2, Sentrin-specific protease 8 (Homo sapiens, UniProt Q96LD8); assay: SENP8 protease inhibitors, SAR follow-up, biochemical, luminescence (AID 504501); format: functional
T2 sequence (Q96LD8 whole entry): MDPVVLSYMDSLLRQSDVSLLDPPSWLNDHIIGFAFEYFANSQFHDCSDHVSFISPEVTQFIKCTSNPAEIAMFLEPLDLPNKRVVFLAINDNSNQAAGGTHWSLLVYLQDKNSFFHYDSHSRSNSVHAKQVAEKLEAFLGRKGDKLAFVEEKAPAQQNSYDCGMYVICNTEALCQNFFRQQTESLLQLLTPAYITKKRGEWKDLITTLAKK

[5] = biological target: T3, Sentrin-specific protease 7 (Homo sapiens, UniProt Q9BQF6); assay: SENP7 protease inhibitors, SAR follow-up, biochemical, luminescence (AID 504497); format: functional
T3 sequence (Q9BQF6 whole entry): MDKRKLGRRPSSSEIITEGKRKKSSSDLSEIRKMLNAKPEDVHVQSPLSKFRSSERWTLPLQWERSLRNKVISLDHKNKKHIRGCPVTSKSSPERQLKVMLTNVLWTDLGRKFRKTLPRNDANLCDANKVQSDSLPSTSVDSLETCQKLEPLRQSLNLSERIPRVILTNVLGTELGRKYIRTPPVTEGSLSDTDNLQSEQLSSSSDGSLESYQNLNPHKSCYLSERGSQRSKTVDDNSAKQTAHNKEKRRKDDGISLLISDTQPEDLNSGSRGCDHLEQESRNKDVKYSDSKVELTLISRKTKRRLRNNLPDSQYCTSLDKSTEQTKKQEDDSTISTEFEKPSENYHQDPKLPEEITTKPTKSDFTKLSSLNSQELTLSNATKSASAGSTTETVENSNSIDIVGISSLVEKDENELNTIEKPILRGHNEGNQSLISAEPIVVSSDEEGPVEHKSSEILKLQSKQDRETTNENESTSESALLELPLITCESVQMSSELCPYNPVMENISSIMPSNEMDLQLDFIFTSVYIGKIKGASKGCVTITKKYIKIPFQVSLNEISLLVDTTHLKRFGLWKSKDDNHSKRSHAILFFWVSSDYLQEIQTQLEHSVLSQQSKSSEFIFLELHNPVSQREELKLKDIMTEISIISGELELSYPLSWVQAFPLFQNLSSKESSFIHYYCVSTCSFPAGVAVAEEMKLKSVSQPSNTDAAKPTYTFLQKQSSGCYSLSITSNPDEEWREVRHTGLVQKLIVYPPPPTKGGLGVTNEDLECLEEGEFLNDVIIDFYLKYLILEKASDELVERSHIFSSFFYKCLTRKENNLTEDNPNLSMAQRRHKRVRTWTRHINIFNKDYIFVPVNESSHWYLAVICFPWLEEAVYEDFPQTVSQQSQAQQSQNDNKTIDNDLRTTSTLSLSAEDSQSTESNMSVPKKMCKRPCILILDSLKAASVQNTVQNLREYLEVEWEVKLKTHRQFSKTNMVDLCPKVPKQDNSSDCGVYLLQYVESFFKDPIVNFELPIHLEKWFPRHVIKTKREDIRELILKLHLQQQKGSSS

[6] = test system: BJ; assay: cytotoxicity toward BJ-TERT-LT-ST fibroblasts, dose response, cell-based, RAS-independent, luminescence (AID 1935); format: functional; details: Homo sapiens;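 further: BJ fibroblasts immortalized with TERT plus LT and ST oncogenes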
[7] = biological target: T4, Mitochondrial peptide methionine sulfoxide reductase (Bos taurus, UniProt P54149); format: functional;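 further: absorbance read-out, biochemical high-throughput dose-response screen for MsrA inhibitors, confirmatory; recombinant bovine MsrA coupled to E. coli TrxB with NADPH and selenocystamine; potency is for inhibitors of MsrA activity on DMSO substrate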
T4 sequence (P54149 whole entry): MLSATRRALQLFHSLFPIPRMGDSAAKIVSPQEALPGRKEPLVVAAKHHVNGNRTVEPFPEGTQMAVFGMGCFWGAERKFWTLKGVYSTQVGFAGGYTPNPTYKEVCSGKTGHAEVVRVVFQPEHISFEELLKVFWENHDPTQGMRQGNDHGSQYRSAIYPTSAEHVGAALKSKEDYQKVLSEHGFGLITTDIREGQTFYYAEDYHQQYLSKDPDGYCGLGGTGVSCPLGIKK

[8] = microbe, parasite or virus in culture; format: functional; details: Mycobacterium tuberculosis

Chain of Protein Rev (P04618 whole entry): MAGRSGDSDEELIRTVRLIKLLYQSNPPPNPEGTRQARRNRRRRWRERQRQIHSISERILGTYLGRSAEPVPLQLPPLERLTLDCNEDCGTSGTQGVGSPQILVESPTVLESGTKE

With `Cc1cccc(C)c1-n1cccc1/C=C1\SC(=S)N(c2cccc(C(=O)O)c2)C1=O` the CC50 [1] was 12.8 µM (active) and the IC50 [2] was 7.27 µM (not active).
For `Oc1ccc(/C=N/Nc2cc(N3CCCC3)nc(N3CCCC3)n2)cc1`, the IC50 [3] was 1.36 µM (active), the IC50 [4] was > 99 µM (inactive) and the IC50 [5] was > 99 µM (inactive).
In the case of `COc1ccc(S(=O)(=O)/N=C2\C=C(Nc3ccc(O)cc3)C(=O)c3ccccc32)cc1`, the EC50 [6] is reported as 2.93 µM (inconclusive) and the IC50 [7] is reported as 197 µM (inactive).
In the case of `COc1ccc(/C=N/Nc2cc(N3CCCC3)nc(N3CCCC3)n2)cc1`, the CC50 [8] is reported as 20.3 µM (active).
